# From patent US6649605B2, “Treatment of tension-type headaches with NMDA receptor antagonists” (Head Explorer A/S, priority 1996, dated 2003)
# Entries after “also recorded” stand apart in the source; their conditions may differ.
# How the values were obtained:
# [1] = test system: patients with chronic tension-type headache; assay: Open labeled pilot study of prophylactic Dextromethorphan; type: in vivo, human
# Source text: Five patients with a diagnosis of chronic tension-type headache according to the International Headache Society (Headache Classification Committee 1988) were recruited from the outpatient headache clinic at Glostrup Hospital. There were 2 males and 3 females, and the mean age was 45.4 years (range 39-48). The mean life time duration of chronic tension-type headache was 12.2 years (range 4-25). One patient had coexisting but infrequent migraine. Exclusion criteria were; daily major medication (including prophylactic headache therapy); abuse of analgesics or alcohol; serious somatic or psychiatric diseases including depression.
# Using an open labeled design, patients fulfilled a diagnostic headache diary during at least 4 weeks run-in period to ensure the diagnostic criteria. Thereafter, the patients received Dextromethorphan (Dexofan®) tablets at 30 mg each, three times per day. The treatment period lasted 4 weeks, and during this period patients were asked to continue Faith headache diaries: and record headache intensity, frequency, duration, any medication taken and any possible adverse events. At a follow up visit at day 29-32, diaries were collected and possible adverse events and evaluation of the treatment were recorded. Due to the restricted number of patients, no statistical analysis were done. The efficacy parameters were headache intensity, frequency and duration, and intake of simple analgesics. Mean values from the run-in period were compared to those obtained during the treatment period.
# human volunteers = conditions: cited from earlier work
# tension-type headache = conditions: literature reports; cited from earlier work
# [2] = test system: patients with chronic tension-type headache; assay: Open labeled pilot study of prophylactic Gabapentin; type: in vivo, human
# Source text: Three patients with a diagnosis of chronic tension-type headache according to the International Headache society (Headache Classification Committee 1988) were recruited from the outpatient headache clinic at Glostrup Hospital. The patients were males with a mean age of 42 years (range. 35-49). The mean life time duration of chronic tension-type headache was 16 years (range 7-21). […] Exclusion criteria were: daily major medication (including prophylactic headache therapy); abuse of analgesics or alcohol; serious somatic or psychiatric diseases including depression.
# Using an open labeled design, patients fulfilled a diagnostic headache diary during at least 4 weeks run-in period to ensure the diagnostic criteria. Thereafter, the patients received Gabapentin (Neurontin®) tablets, initially 300 mg (one tablet) per day on day one, increasing with 300 mg (1 tablet) per day to 900 mg (3 tablets) on day 3. The treatment period lasted […], and during this period patients were asked to continue with headache diaries, and record headache intensity, frequency, duration, any medication taken and any possible adverse events. At a follow, up visit at day 29-32, diaries were collected and any adverse events and evaluation of the treatment were recorded. Duo to the low number of patients, no statistical analysis were done. The primary efficacy parameters were headache intensity frequency and duration, and the mean values from the run-in period were compared to those obtained during the treatment period, […]
# GABA A = conditions: cited from earlier work
# GABA B = GABA B (Homo sapiens, UniProt Q9UBS5); conditions: cited from earlier work
# [3] = test system: alpha-2-subunit of a calcium channel; conditions: cited from earlier work
# migraine = conditions: literature reports; cited from earlier work
# [4] = 0-10 VAS intensity scale, during active treatment, mean
# [5] = 0-10 VAS intensity scale, run-in period, mean
# [6] = open labeled, no statistical analysis
# Sequence of GABA B (Q9UBS5 15-961 limits assumed): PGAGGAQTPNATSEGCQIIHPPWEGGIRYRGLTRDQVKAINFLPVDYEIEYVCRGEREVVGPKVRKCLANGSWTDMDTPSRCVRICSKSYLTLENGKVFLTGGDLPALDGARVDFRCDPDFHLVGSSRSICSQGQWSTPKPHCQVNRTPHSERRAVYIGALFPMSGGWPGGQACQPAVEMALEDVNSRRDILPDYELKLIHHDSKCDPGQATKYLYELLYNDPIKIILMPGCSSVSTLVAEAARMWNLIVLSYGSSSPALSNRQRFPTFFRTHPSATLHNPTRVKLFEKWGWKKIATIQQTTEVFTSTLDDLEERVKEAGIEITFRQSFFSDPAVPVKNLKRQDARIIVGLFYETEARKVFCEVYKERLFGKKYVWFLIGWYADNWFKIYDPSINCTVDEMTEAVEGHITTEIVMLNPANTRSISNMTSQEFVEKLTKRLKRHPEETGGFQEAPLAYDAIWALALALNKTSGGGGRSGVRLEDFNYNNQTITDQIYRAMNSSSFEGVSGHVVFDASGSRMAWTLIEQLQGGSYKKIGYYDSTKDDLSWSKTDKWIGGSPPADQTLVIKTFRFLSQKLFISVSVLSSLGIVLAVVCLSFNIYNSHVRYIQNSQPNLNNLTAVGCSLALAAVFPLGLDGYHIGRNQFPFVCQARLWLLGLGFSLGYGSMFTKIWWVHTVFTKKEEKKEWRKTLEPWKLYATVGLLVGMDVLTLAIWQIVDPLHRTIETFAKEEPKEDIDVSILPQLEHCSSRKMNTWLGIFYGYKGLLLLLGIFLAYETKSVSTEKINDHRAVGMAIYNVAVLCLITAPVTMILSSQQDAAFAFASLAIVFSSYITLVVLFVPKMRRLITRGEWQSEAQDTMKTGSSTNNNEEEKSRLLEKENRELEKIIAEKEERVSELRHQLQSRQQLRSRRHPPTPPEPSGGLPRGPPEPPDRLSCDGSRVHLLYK
# Sequence of GABA B (O75899 42-941 partner): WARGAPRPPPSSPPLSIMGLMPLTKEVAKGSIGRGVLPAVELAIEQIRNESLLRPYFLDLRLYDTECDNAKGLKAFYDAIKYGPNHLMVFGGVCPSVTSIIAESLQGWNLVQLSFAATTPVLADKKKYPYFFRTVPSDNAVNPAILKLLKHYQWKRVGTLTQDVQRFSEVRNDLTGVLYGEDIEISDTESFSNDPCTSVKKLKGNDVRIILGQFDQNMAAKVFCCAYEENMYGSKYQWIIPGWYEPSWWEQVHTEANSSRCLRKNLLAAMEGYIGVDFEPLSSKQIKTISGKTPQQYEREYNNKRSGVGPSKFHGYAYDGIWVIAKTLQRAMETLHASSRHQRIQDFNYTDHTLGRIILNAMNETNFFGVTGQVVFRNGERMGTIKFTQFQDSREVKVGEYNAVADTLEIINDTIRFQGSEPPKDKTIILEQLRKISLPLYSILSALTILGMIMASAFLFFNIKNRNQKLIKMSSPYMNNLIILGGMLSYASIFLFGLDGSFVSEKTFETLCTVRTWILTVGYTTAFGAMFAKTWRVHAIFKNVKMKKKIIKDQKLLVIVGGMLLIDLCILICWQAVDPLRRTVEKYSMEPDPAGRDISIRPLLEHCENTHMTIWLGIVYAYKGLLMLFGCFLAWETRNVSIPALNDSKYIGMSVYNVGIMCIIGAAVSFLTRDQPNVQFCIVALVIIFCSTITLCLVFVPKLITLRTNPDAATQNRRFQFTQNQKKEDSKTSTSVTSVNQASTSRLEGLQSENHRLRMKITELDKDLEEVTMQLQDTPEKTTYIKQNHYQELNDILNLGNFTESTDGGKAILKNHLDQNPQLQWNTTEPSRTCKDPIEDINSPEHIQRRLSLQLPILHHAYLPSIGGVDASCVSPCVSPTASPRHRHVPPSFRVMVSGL
smiles,measurement,setting,value
COc1ccc2c(c1)[C@]13CCCC[C@@H]1[C@H](C2)N(C)CC3 [Dextromethorphan],"Headache intensity, active treatment",[1]; [4],3.6
same,"Headache intensity, run-in period",[1]; [5],4.4
same,Effect in the individual patients,[1]; 5 patients,Two patients reported a marked effect with considerable relief of headache intensity and duration within very few days of treatment; also recorded: one patient had a slight relief of headache intensity; also recorded: two patients reported no effect at all
same,Side effects,[1]; 5 patients,Four patients reported no side effects; also recorded: marked side effects with sedation was reported in one patient
same,"Frequency of headache, active treatment",[1]; active treatment,27 days per 4 weeks period
same,"Mean intake of analgesics, active treatment",[1]; active treatment,0.5 dose per day
same,Overall prophylactic effect,[1]; [6],positive prophylactic effect
same,"Frequency of headache, run-in period",[1]; run-in,28 days per 4 weeks period
same,"Mean intake of analgesics, run-in period",[1]; run-in period,1.8 dose per day
same,Decrease of frequency of headache,[1]; treatment vs run-in period,4%
same,Decrease of intake of analgesics,[1]; treatment vs run-in period,72%
same,Reduction of duration of the individual headache episode,[1]; treatment vs run-in period,11%
same,Reduction of headache intensity,"[1]; treatment vs run-in period, 30 mg three times per day, 4 weeks, 5 patients",18%
same,After sensation induced by repetitive stimuli,human volunteers,reduce the after sensation
"CCOC(=O)Nc1ccc(NCc2ccc(F)cc2)nc1N [Flupirtin, ethyl 2-amino-6-(4-fluorobenylamino)-3-pyridylcarbamate]",Effect in tension-type headache,tension-type headache,positive effects
NCC1(CC(=O)O)CCCCC1 [Gabapentin],"Headache intensity, active treatment",[2]; [4],3.6
same,"Headache intensity, run-in period",[2]; [5],5.5
same,Effect in the individual patients,[2]; 3 patients,One patient had excellent effect of Gabapentin with complete relief of the headache after 2 days treatment; also recorded: another patient had a moderate effect on headache intensity and frequency; also recorded: the third patient had no significant effect on any of efficacy parameters
same,Side effects,[2]; 3 patients,"Those two subjects with good or excellent effect reported no side effects; also recorded: sedation, vertigo and slight nausea"
same,"Mean daily intake of analgesics, active treatment",[2]; active treatment,0.3 dose per day
same,"Frequency of headache, active treatment",[2]; active treatment period,13 days per 4 weeks
same,Overall prophylactic effect,[2]; [6],positive prophylactic effect
same,"Frequency of headache, run-in period",[2]; run-in period,23.5 days per 4 weeks
same,"Mean daily intake of analgesics, run-in period",[2]; run-in period,1.1 dose per day
same,Decrease of frequency of headache,[2]; treatment vs run-in period,45%
same,Decrease of mean daily intake of analgesics,[2]; treatment vs run-in period,72%
same,Reduction of duration of the individual headache episode,[2]; treatment vs run-in period,8%
same,Decrease of headache intensity,"[2]; treatment vs run-in period, up to 900 mg per day, 3 patients",35%
same,Affinity for GABA A,GABA A,fail to show affinity
same,Affinity for GABA B,GABA B,fail to show affinity
same,Binding affinity to the alpha-2-subunit of a calcium channel,[3],showed binding affinity
CNS(=O)(=O)Cc1ccc2[nH]cc(CCN(C)C)c2c1 [sumatriptan],Effect in tension-type headache,tension-type headache,not effective to a clinically relevant extent
same,Effect in migraine,migraine,highly effective
